{"source": "paper PMC9403976", "about": "“Elucidating the path to Plasmodium prolyl-tRNA synthetase inhibitors that overcome halofuginone resistance” (Nature Communications, 2022)", "key": {"[1]": {"tested_on": "halofuginone-induced P. falciparum (elevated proline homeostasis)", "test": "P. falciparum ABS growth assay, SYBR Green, 72 h, halofuginone-induced parasites", "format": "cell-based, Plasmodium falciparum", "text": "(§1) Parasites were maintained under standard culture conditions as described previously[56],[57]. […] The P. falciparum Dd2 cell lines used in this study (Dd2-2D4, halofuginone-induced, and HFGR-I) have previously undergone whole genome sequencing in our labs. They were also routinely assayed and EC50 values determined using the ABS growth assay (see below) with a panel of standard antimalarial compounds, including halofuginone which has differential activity for the three Dd2 lines used in these experiments. Data were cross-referenced for consistency with literature reported values and data previously acquired in the lab.\n(§2) This assay was performed as previously described. In short, P. falciparum erythrocytic-stage parasites at 1% parasitemia and 1% hematocrit in RPMI + 0.5% Albumax were seeded at 40 μL/well in 384-well plates with test compounds in triplicate, dose-response format with 10 μM dihydroartemisinin as a kill-control and blank (no compound) wells as a growth-control. […] After 72 h, growth was quantified by measuring fluorescence (Molecular Devices SpectraMax iD5) following SYBR Green 1 staining. Data were analyzed in Excel and plotted in PRISM (V. 8.4.3–9.1.0, GraphPad)."}, "[2]": {"tested_on": "HFGR-I P. falciparum (elevated proline homeostasis and PfcProRS^L482H)", "test": "P. falciparum ABS growth assay, SYBR Green, 72 h, HFGR-I parasites", "format": "cell-based, Plasmodium falciparum", "text": "as §1, §2"}, "[3]": {"biological_target": "T1, PfcProRS (Plasmodium falciparum, UniProt Q8I5R7)", "T1 construct": "made in house; host or cells: E. coli SoluBL-21", "T1 sequence (Q8I5R7 249-746)": "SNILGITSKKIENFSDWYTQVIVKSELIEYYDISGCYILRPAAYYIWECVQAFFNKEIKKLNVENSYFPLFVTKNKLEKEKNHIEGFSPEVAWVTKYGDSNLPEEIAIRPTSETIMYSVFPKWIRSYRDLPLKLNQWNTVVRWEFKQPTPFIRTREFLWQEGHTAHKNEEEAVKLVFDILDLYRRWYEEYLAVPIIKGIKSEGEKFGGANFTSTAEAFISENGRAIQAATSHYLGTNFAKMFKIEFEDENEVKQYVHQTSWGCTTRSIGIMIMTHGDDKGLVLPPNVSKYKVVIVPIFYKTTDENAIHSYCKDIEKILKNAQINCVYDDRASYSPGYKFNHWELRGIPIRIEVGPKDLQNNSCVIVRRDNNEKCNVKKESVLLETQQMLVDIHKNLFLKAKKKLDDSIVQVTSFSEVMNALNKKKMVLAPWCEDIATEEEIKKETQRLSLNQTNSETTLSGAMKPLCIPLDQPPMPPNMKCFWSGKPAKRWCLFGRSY", "format": "binding", "details": "for Normalized response, dose-response replicates (SI Fig 14): replicates 1-3, listed as MAT334 (29)"}, "[4]": {"biological_target": "HsProRS (Homo sapiens, UniProt P07814)", "sequence (P07814 996-1512)": "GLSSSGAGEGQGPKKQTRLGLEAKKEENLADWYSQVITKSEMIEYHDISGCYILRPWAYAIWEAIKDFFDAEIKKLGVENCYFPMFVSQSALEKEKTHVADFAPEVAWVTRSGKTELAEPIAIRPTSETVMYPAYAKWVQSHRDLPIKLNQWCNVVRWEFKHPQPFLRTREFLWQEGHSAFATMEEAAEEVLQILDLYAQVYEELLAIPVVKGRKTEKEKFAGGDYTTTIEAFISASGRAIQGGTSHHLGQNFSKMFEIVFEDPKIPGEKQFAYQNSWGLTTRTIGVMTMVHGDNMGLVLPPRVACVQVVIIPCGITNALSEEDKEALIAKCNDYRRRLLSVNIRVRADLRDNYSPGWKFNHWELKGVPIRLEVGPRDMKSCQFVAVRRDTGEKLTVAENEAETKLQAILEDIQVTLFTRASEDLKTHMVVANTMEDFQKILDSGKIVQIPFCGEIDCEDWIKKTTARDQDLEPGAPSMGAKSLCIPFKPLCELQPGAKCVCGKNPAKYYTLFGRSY", "test": "TR-FRET ligand displacement assay with tracer MAT379 (CoraFluor-1-Halo and anti-His6 antibody formats)", "format": "binding", "set-up": "made in house; host or cells: E. coli SoluBL-21", "details": "250 nM MAT379"}, "[5]": {"tested_on": "P. falciparum Dd2-2D4", "test": "P. falciparum asexual blood stage (ABS) growth assay, SYBR Green, 72 h, wild-type parasites", "format": "cell-based, Plasmodium falciparum"}, "[6]": {"details": "10 μM, compound had <50% inhibition"}}, "note": "“And” between values parts separate entries of the source, which are not always exact repeats. Equal entries are not always repeated. Where two headings read alike, the source gives them in different places. Marks after values point to notes of the source that are not given here."}
{"smiles": "O=C(NC1Cc2ccccc2C1)c1nccnc1NC(=O)N1CCC(NC(=O)[C@@H]2CCCN2)CC1", "note": "[MAT334]", "values": [{"measurement": "percent growth at 10 μM, Dd2 Halofuginone-induced", "setting": "[1]; [6]", "value": 59, "unit": "%^b"}, {"measurement": "EC50", "setting": "[1]; Plasmodium falciparum, DD2, halofuginone-induced, bound given in μM, read-out: Dd2 EC50 halofuginone-induced, bound", "value": "> 10", "unit": "µM"}, {"measurement": "% signal at 10 μM, halofuginone-induced", "setting": "[1]; halofuginone-induced, 10 μM", "value": 58.7, "unit": "%"}, {"measurement": "fold decreased activity in halofuginone-induced and HFGR-I parasites", "setting": "[1]; vs wild-type Dd2-2D4", "value": "20-to-40 fold"}, {"measurement": "percent growth at 10 μM, Dd2 HFGR-I", "setting": "[2]; [6]", "value": 66, "unit": "%^b"}, {"measurement": "% signal at 10 μM, HFGR1", "setting": "[2]; HFGR1, 10 μM", "value": 66.0, "unit": "%"}, {"measurement": "EC50", "setting": "[2]; Plasmodium falciparum, DD2, HFGR1, bound given in μM, read-out: Dd2 EC50 HFGR1, bound", "value": "> 10", "unit": "µM"}, {"measurement": "Normalized response, dose-response replicates (SI Fig 14)", "setting": "[3]; Log[inhibitor] (M) -5.000", "value": "2.08E-01 and 3.63E-01 and 3.19E-01"}, {"measurement": "Normalized response, dose-response replicates (SI Fig 14)", "setting": "[3]; Log[inhibitor] (M) -5.301", "value": "5.18E-01 and 3.74E-01 and 4.21E-01"}, {"measurement": "Normalized response, dose-response replicates (SI Fig 14)", "setting": "[3]; Log[inhibitor] (M) -5.601", "value": "6.67E-01 and 7.40E-01 and 6.08E-01"}, {"measurement": "Normalized response, dose-response replicates (SI Fig 14)", "setting": "[3]; Log[inhibitor] (M) -5.904", "value": "7.68E-01 and 7.75E-01 and 6.45E-01"}, {"measurement": "Normalized response, dose-response replicates (SI Fig 14)", "setting": "[3]; Log[inhibitor] (M) -6.208", "value": "8.81E-01 and 8.94E-01 and 8.19E-01"}, {"measurement": "Normalized response, dose-response replicates (SI Fig 14)", "setting": "[3]; Log[inhibitor] (M) -6.509", "value": "8.78E-01 and 9.77E-01 and 9.06E-01"}, {"measurement": "Normalized response, dose-response replicates (SI Fig 14)", "setting": "[3]; Log[inhibitor] (M) -6.796", "value": "9.44E-01 and 9.68E-01 and 8.61E-01"}, {"measurement": "Normalized response, dose-response replicates (SI Fig 14)", "setting": "[3]; Log[inhibitor] (M) -7.108", "value": "1.02E+00 and 1.01E+00 and 1.00E+00"}, {"measurement": "Normalized response, dose-response replicates (SI Fig 14)", "setting": "[3]; Log[inhibitor] (M) -7.409", "value": "9.75E-01 and 1.05E+00 and 9.17E-01"}, {"measurement": "Normalized response, dose-response replicates (SI Fig 14)", "setting": "[3]; Log[inhibitor] (M) -7.710", "value": "9.99E-01 and 1.04E+00 and 9.29E-01"}, {"measurement": "Normalized response, dose-response replicates (SI Fig 14)", "setting": "[3]; Log[inhibitor] (M) -8.000", "value": "9.48E-01 and 9.82E-01 and 1.03E+00"}, {"measurement": "Normalized response, dose-response replicates (SI Fig 14)", "setting": "[3]; Log[inhibitor] (M) -8.301", "value": "1.01E+00 and 1.09E+00 and 9.01E-01"}, {"measurement": "Normalized response, dose-response replicates (SI Fig 14)", "setting": "[3]; Log[inhibitor] (M) -8.602", "value": "8.97E-01 (2×) and 1.09E+00"}, {"measurement": "Normalized response, dose-response replicates (SI Fig 14)", "setting": "[3]; Log[inhibitor] (M) -9.000", "value": "9.02E-01 and 9.67E-01 and 1.03E+00"}, {"measurement": "Normalized response, dose-response replicates (SI Fig 14)", "setting": "[3]; Log[inhibitor] (M) -9.301", "value": "8.06E-01 and 9.62E-01 and 9.06E-01"}, {"measurement": "PfcProRS -- best Kd", "setting": "[3]; SI Fig 16a, values on -log scale", "value": 6.180}, {"measurement": "Kd", "setting": "[4]; HsProRS (KD [nM]) + proline, 100 μM proline", "value": 2130, "unit": "nM"}, {"measurement": "Kd", "setting": "[4]; HsProRS (KD [nM]) −, absence of substrates", "value": 2110, "unit": "nM"}, {"measurement": "percent growth at 10 μM, Dd2 wt", "setting": "[5]; [6]", "value": 76, "unit": "%^b"}, {"measurement": "EC50", "setting": "[5]; Plasmodium falciparum, wildtype (Dd2-2D4), bound given in μM, read-out: Dd2 EC50 wildtype (Dd2-2D4), bound", "value": "> 10", "unit": "µM"}, {"measurement": "% signal at 10 μM, wildtype (Dd2-2D4)", "setting": "[5]; wildtype (Dd2-2D4), 10 μM", "value": 75.7, "unit": "%"}]}
